Source: patent US9421204B2, “Oligomer modified diaromatic substituted compounds” (priority 2010, dated 2016)
pEC50, pIC50: −log10 of the molar value. Read-outs that look alike come from different tables or passages of the source.

Legend:
Wild Type RT = Wild Type RT (Human immunodeficiency virus type 1 group M subtype B, UniProt P04585); assay: HIV-1 Reverse Transcriptase Inhibition Assay; format: biochemical
Description: The following materials were removed from the freezer and were stored on wet ice (dGTP, ^32P, purified enzyme extract, rCdG, dGTP, DNA). Test compounds were evaluated at a high test of 100 μM diluted in dH2O and if the stock solution was turbid, 1:1000 Triton-X was added to the stock solution. Thirty microliters (30 μL) of each dilution was then transferred in duplicate to the appropriate well of a 96-well plate. The positive and negative control wells each received 30 μL of dH2O instead of the compound. A 2× buffer was prepared in the following manner: 125 μL 2M Tris pH 8.0, 250 μL 3M KCl, 80 μL 1 M MgC12, 10 μL 2 M DTT, 40 μL 25 U/mL rCdG, 100 μL 1 mM dGTP, 10 μL 800 Ci/mMol alpha ^32P:dG TP, and 4.4 mL dH2O. Fifty microliters (50 μL) of 2× buffer was added to every well of the plate. BSA was diluted 1:100 and Triton-X 1:1000 in dH2O and the enzyme was added to the mixture at a 1:400 dilution. Twenty microliters (20 μL) of the enzyme solution was added to all of the wells of the plate except the negative control wells. Distilled water was used instead of enzyme in these wells. The plate was incubated at 37° C. for 30 minutes. Following incubation, 10 μL of 10 mg/mL DNA (MB-grade fish sperm) was added to each well, followed by 150 μL of cold 10% TCA in each well. The plate was incubated at room temperature for approximately 15 minutes in order to allow for precipitation of the samples. Following the incubation the contents were transferred to the appropriate filter plate. The plate was placed on the vacuum manifold and pushed firmly to induce suction. Wells were rinsed with 200 μL of cold TCA. Again, the plate was pushed down firmly and vacuum suction was applied. Once all of the liquid was aspirated from the filter plate, it was removed from the manifold and residual liquid was blotted from the bottom of the plastic base. The filtered wells were separated from the plastic base and the wells were blotted on clean, absorbent paper. The filtered wells were pushed into the cassette and a sheet of Millipore multiscreen tape was placed on the bottom of a Wallace Microbeta cassette covering all of the holes. Twenty microliters (20 μL) of Wallace Supermix Scintillant was added to each well and the top of the wells were covered with a sheet of the multiscreen tape. The plate was read on the Wallace MicroBeta counter to measure incorporated ^32P.

NL4-3 = assay: Anti-HIV cytoprotection assay, wild type NL4-3; format: cell-based, HIV-1; settings: for TI: HIV-1 strain NL4-3
Description: (§1) Cells were prepared as described above. Virus Preparation—The wild type NL4-3 and drug resistant A17 viruses were obtained from the NIH AIDS Research and Reference Reagent Program and stock virus pools were produced in CEM-SS cells. Amino acid substitutes of L100I, Y181C and P23L were introduced by site-directed mutagenesis into pN L4-3 and stock virus pools were produced in CEM-SS cells. A pretitered aliquot of virus was removed from the freezer (−80° C.) and allowed to thaw slowly to room temperature in a biological safety cabinet.
(§2) Plate Format—Each plate contains cell control wells (cells only), virus control wells (cells plus virus), drug toxicity wells (cells plus drug only), drug colorimetric control wells (drug only) as well as experimental wells (drug plus cells plus virus). Samples were tested in triplicate with eleven half-log dilutions per compound. Efficacy and Toxicity XTT—Following incubation at 37° C. in a 5% CO2 incubator, the test plates were stained with the tetrazolium dye XTT (2,3-bis(2-methoxy-4-nitro-5-sulfophenyl)-5-[(phenylamino)carbonyl]-2H-tetrazolium hydroxide). XTT-tetrazolium was metabolized by the mitochondrial enzymes of metabolically active cells to a soluble formazan product, allowing rapid quantitative analysis of the inhibition of HIV induced cell killing by anti-HIV test substances. XTT solution was prepared daily as a stock of 1 mg/mL in RPMI1640. Phenazine methosulfate (PMS) solution was prepared at 0.15 mg/mL in PBS and stored in the dark at −20° C. XTTIPMS stock was prepared immediately before use by adding 40 μL of PMS per ml of XTT solution. Fifty microliters of XTT/PMS was added to each well of the plate and the plate was re-incubated for 4 hours at 37° C. Plates were sealed with adhesive plate sealers and shaken gently or inverted several times to mix the soluble formazan product and the plate was read spectrophotometrically at 450/650 nm with a Molecular Devices Vmax plate reader.
(§3) Data Analysis—Raw data was collected from the Softmax Pro 4.6 software and imported into a Excel XLFit4 spreadsheet for analysis by four parameter curve fit calculations. Both antiviral activity and toxicity are calculated.

NL4-3L100I = assay: Anti-HIV cytoprotection assay, drug resistant NL4-3 L100I; format: cell-based; settings: HIV-1 strain NL4-3L100I; for pEC50: CEM-SS cells
Description: as §1, with “cabinet. Virus was re-suspended and diluted into tissue culture medium such that the amount of virus added to each well in a volume of 50 μL was the amount determined to yield 85 to 95% cell killing at 6 days post-infection.” for “cabinet.”
as §2, §3

NL4-3Y181C = assay: Anti-HIV cytoprotection assay, drug resistant NL4-3 Y181C; format: cell-based; settings: HIV-1 strain NL4-3Y181C; for pEC50: CEM-SS cells
Description: as §1, with “cabinet. Virus was re-suspended and diluted into tissue culture medium such that the amount of virus added to each well in a volume of 50 μL was the amount determined to yield 85 to 95% cell killing at 6 days post-infection.” for “cabinet.”
as §2, §3

NL4-3P236L = assay: Anti-HIV cytoprotection assay, drug resistant NL4-3 P236L; format: cell-based; settings: HIV-1 strain NL4-3P236L; for pEC50: CEM-SS cells
Description: as §1, with “cabinet. Virus was re-suspended and diluted into tissue culture medium such that the amount of virus added to each well in a volume of 50 μL was the amount determined to yield 85 to 95% cell killing at 6 days post-infection.” for “cabinet.”
as §2, §3

A17K103N/Y181C = assay: Anti-HIV cytoprotection assay, drug resistant A17; format: cell-based; settings: HIV-1 strain A17K103N/Y181C, CEM-SS cells
Description: as §1, §2, §3

in vitro = in vitro ADME; settings: human; for Papp A→B at 2 hours, 10 μM / Papp B→A at 2 hours, 10 μM: pH 7.4; for Papp A→B at 2 hours, 10 μM: read-out: Average Papp, A→B; for Papp B→A at 2 hours, 10 μM: read-out: Average Papp, B→A; for efflux ratio at 2 hours, 10 μM: read-out: Efflux Ratio (B→A/A→B)
Description: Each determination was performed in duplicate.
Vr is the volume of the receiver compartment in cm^3.
Vd is the volume of the donor compartment in cm^3.
A is the area of the cell monolayer (1.13 cm^2 for 12-well Transwell®).
CN is the nominal dosing concentration of the dosing solution in μM.
CA is the average of the nominal dosing concentration and the measured 120 minute donor concentration in μM.
Cr^final is the receiver concentration in μM at the end of the incubation period.
Cd^final is the concentration of the donor in μM at the end of the incubation period.

[1] = Human immunodeficiency virus 1, NL43, CEM-SS
[2] = Human immunodeficiency virus 1, CEM-SS
[3] = Caco-2, pH 7.4, Test 1, 10 μM, read-out: Recovery (%) A→B
[4] = Caco-2, pH 7.4, Test 1, 10 μM, read-out: Recovery (%) B→A
[5] = Caco-2, pH 7.4, Test 2, 10 μM, read-out: Recovery (%) A→B
[6] = Caco-2, pH 7.4, Test 2, 10 μM, read-out: Recovery (%) B→A

Molecule | pIC50 (Wild Type RT; Wild Type RT IC50) | TI (NL4-3) | pEC50 (NL4-3; [1]) | TI (NL4-3L100I) | pEC50 (NL4-3L100I; [2]) | pEC50 (NL4-3Y181C; [2]) | pEC50 (NL4-3P236L; [2]) | pEC50 (A17K103N/Y181C; [2]) | Papp A→B at 2 hours, 10 μM (in vitro; Caco-2, pH 7.4, Test 1, 10 μM) | Papp B→A at 2 hours, 10 μM (in vitro; Caco-2, pH 7.4, Test 1, 10 μM) | recovery at 2 h, 10 μM (in vitro; [3]) | recovery at 2 h, 10 μM (in vitro; [4]) | efflux ratio at 2 hours, 10 μM (in vitro; Caco-2, pH 7.4, Test 1) | Papp A→B at 2 hours, 10 μM (in vitro; Caco-2, pH 7.4, Test 2, 10 μM) | Papp B→A at 2 hours, 10 μM (in vitro; Caco-2, pH 7.4, Test 2, 10 μM) | recovery at 2 h, 10 μM (in vitro; [5]) | recovery at 2 h, 10 μM (in vitro; [6]) | efflux ratio at 2 hours, 10 μM (in vitro; Caco-2, pH 7.4, Test 2) | also measured
COCCOCCOCCOCCOc1ccc2[nH]c(C(=O)N3CCN(c4ncccc4NC(C)C)CC3)cc2c1 [mPEG4-O-Delavirdine, 5-O-mPEG4-Delavirdine] | 6.55 | >5.8 | 6.06 | >5.3 | 6.02 | < 5.30 | < 5.30 | < 5.30 | 39.3 ×10⁻⁶ cm/s | 34.8 ×10⁻⁶ cm/s | 74% | 65% | 0.9 | – | – | – | – | – | –
COCCOCCOCCOCCOCCOc1ccc2[nH]c(C(=O)N3CCN(c4ncccc4NC(C)C)CC3)cc2c1 [mPEG5-O-Delavirdine, 5-O-mPEG5-Delavirdine] | 6.89 | – | – | – | – | – | – | – | 29.9 ×10⁻⁶ cm/s | 39.1 ×10⁻⁶ cm/s | 71% | 65% | 1.3 | 33.3 ×10⁻⁶ cm/s | 38.9 ×10⁻⁶ cm/s | 97% | 95% | 1.2 | –
COCCOCCOCCOCCOCCOCCOc1ccc2[nH]c(C(=O)N3CCN(c4ncccc4NC(C)C)CC3)cc2c1 [mPEG6-O-Delavirdine, 5-O-mPEG6-Delavirdine] | 6.54 | – | – | – | – | – | – | – | 16.1 ×10⁻⁶ cm/s | 34.1 ×10⁻⁶ cm/s | 67% | 72% | 2.1 | – | – | – | – | – | –
COCCOCCNc1ccc2[nH]c(C(=O)N3CCN(c4ncccc4NC(C)C)CC3)cc2c1 [5-mPEG2-NH-Delavirdine] | 6.24 | >12.5 | 7.10 | >1.4 | 6.15 | < 6.00 | 6.64 | < 6.00 | – | – | – | – | – | 46.2 ×10⁻⁶ cm/s | 41.1 ×10⁻⁶ cm/s | 88% | 88% | 0.9 | TI (NL4-3P236L): >4.4
COCCNc1ccc2[nH]c(C(=O)N3CCN(c4ncccc4NC(C)C)CC3)cc2c1 [5-mPEG1-NH-Delavirdine, 5-mPEG-NH-Delavirdine] | 6.60 | >50.0 | 7.70 | >1.8 | 6.25 | 6.09 | < 6.00 | < 6.00 | – | – | – | – | – | 50.2 ×10⁻⁶ cm/s | 39.4 ×10⁻⁶ cm/s | 91% | 92% | 0.8 | TI (NL4-3Y181C): >1.2
5-O-mPEG9-Delavirdine [mPEG9-O-Delavirdine] | – | >5.6 | – | >5.3 | – | – | – | – | – | – | – | – | – | – | – | – | – | – | pIC50 (Wild Type RT; read-out: Wild Type RT IC50): 6.25; pEC50 (NL4-3; HIV-1 strain NL4-3, CEM-SS cells, read-out: EC50): 6.05; pEC50 (NL4-3L100I; read-out: EC50): 6.03; pEC50 (NL4-3Y181C; read-out: EC50): < 5.30; pEC50 (NL4-3P236L; read-out: EC50): < 5.30; pEC50 (A17K103N/Y181C; read-out: EC50): < 5.30
COCCOCCOCCOc1ccc2[nH]c(C(=O)N3CCN(c4ncccc4NC(C)C)CC3)cc2c1 [mPEG3-O-Delavirdine, 5-O-mPEG3-Delavirdine] | 7.30 | >83.3 | 7.22 | >167.0 | 7.52 | < 5.30 | < 5.30 | < 5.30 | 38.4 ×10⁻⁶ cm/s | 33.9 ×10⁻⁶ cm/s | 66% | 61% | 0.9 | 41.4 ×10⁻⁶ cm/s | 29.1 ×10⁻⁶ cm/s | 95% | 101% | 0.7 | –
COCCOCCOCCOCCOCCOCCOCCOc1ccc2[nH]c(C(=O)N3CCN(c4ncccc4NC(C)C)CC3)cc2c1 [mPEG7-O-Delavirdine, 5-O-mPEG7-Delavirdine] | 6.15 | – | – | – | – | – | – | – | 14.2 ×10⁻⁶ cm/s | 36.6 ×10⁻⁶ cm/s | 74% | 69% | 2.6 | 23.1 ×10⁻⁶ cm/s | 39.3 ×10⁻⁶ cm/s | 94% | 95% | 1.7 | –
COCCOCCOCCOCCOCCOCCOCCOCCOc1ccc2[nH]c(C(=O)N3CCN(c4ncccc4NC(C)C)CC3)cc2c1 [mPEG8-O-Delavirdine, 5-O-mPEG8-Delavirdine] | 6.31 | – | – | – | – | – | – | – | 4.98 ×10⁻⁶ cm/s | 43.6 ×10⁻⁶ cm/s | 80% | 82% | 8.8 | – | – | – | – | – | –
